Assay results: US12534496B2, “Polymorphic forms of Cyclo (-His-Pro) and methods of use to treat kidney disease” (NovMetaPharma Co., Ltd., priority 2018, dated 2026)
Entries after “also recorded” stand apart in the source; their conditions may differ.

What was measured:
Assay type in all cases: physicochemical
[1] = Solubility of CHP hydrate (Pattern 2) in EtOH/water/MtBE; settings: organic solvent or mixture
[2] = Dynamic vapor sorption (DVS) at 25 °C with post-DVS XRPD; settings: for Post-DVS XRPD form: after DVS cycles at 25 °C
Procedure: DVS was carried out by placing an approximately 10-20 mg sample into a mesh vapour sorption balance pan and loaded into a DVS Intrinsic Dynamic Vapour Sorption Balance by Surface Measurement Systems. The sample was subjected to a ramping profile from 40 to 90% relative humidity (RH) at 10% increments, maintaining the sample at each step until a stable weight had been achieved (dm/dt 0.004%, minimum step length 30 minutes, maximum step length 500 minutes) at 25° C. After completion of the sorption cycle, the sample was dried using the same procedure to 0% RH and then a second sorption cycle back to 40% RH. Two cycles were performed. The weight change during the sorption/desorption cycles were plotted, allowing for the hygroscopic nature of the sample to be determined. XRPD analysis was then carried out on any solid retained.
(§1) Approximately, 10-20 mg of sample was placed into a mesh vapor sorption balance pan and loaded into a DVS Intrinsic dynamic vapor sorption balance by Surface Measurement Systems. The sample was subjected to a ramping profile from 40-90% relative humidity (RH) at 10% increments, maintaining the sample at each step until a stable weight had been achieved (dm/dt 0.004%, minimum step length 30 minutes, maximum step length 500 minutes) at 25° C. After completion of the sorption cycle, the sample was dried using the same procedure to 0% RH and then a second sorption cycle back to 40% RH. Two cycles were performed. The weight change during the sorption/desorption cycles were plotted, allowing for the hygroscopic nature of the sample to be determined. XRPD analysis was then carried out on any solid retained.

[3] = Variable temperature dynamic vapour sorption (VT-DVS) at 40, 50, 60 °C; settings: for Post-VT-DVS XRPD form: after cycles at 40, 50 and 60 °C
Procedure: as §1, with “Advantage” for “Intrinsic”, “40°” for “25°”, “RH.” for “RH. Two cycles were performed.”, “determined. The experiment was repeated at 50° C. and finally at 60° C.” for “determined.”

[4] = GMP stability study of CHP anhydrate and CHP hydrate under accelerated conditions (total impurities); settings: for Growth of total Impurities: 40 °C/75% RH
Procedure: CHP anhydrate (Pattern 1) and hydrate (Pattern 2) compounds were manufactured under GMP conditions. A stability study for the CHP anhydrate compound was conducted under ccelerated conditions (40±5° C./75±5% RH) for six months and room temperature conditions (25±5° C./60±5% RH) for 12 months. A further stability study for the CHP hydrate compound was conducted under accelerated conditions (40±5° C./75±5% RH) for 6 months (Table 18).

[5] = Drug substance stability study, 40±2 °C/75±5% RH (appearance, assay, impurities, chiral, water content, XRPD); settings: for XRPD: reference standard of Pattern 2
Procedure: Packaging: Sample at each individual time point was packaged into double Antistatic LDPE bags both secured with cable ties. The sample packed for the same storage condition were stored together within a fiber drum, and closed with metal lid. All packages were prepared in the same fashion and labeled.
Time zero will be the day samples are placed on station. Initial testing results were from the release testing as long as samples are put on station within 30 days of the release test date, otherwise, initial was repeated.
Study Requirements: Total 22.5 g sample (Total 21 g sample if initial test is not needed): • 1.5 g for initial test if needed; • 21 g sample will be divided into 14 parts, 1.5 g for each parts, sample for each part should be weighed into double Antistatic LDPE bags both secured with cable ties. The stability samples for each storage condition are stored together within a fiber drum, closed with metal lid, and then stored at 25±2° C./60+5% RH (9 bags) and 40±2° C./75±5% RH (5 bags), respectively. Sampling Time:
Samples stored not more than 6 months were pulled on schedule date or within 2 business days after the scheduled date. Samples stored more than 6 months were pulled within +2 business days of the scheduled date.
Stability samples stored for one month to one year, and greater than one year were analyzed and completed within 10 and 20 business days after the samples pulled out from stability chamber, respectively. If time zero testing was performed, it was analyzed within 10 business days after study initiation.

## O=C1N[C@@H](Cc2cnc[nH]2)C(=O)N2CCC[C@@H]12 [Pattern 2, Pyrrolo [1,2-a]pyrazine-1,4-dione, hexahydro-3-(1H-imidazol-5-ylmethyl)-, hydrate (1:1), (3S, 8aS)-]
[1]; (EtOH/water = 9/1)/MtBE 3/0 (v/v), 5 °C
  solubility: 121 mg/mL
[1]; (EtOH/water = 9/1)/MtBE 3/0 (v/v), 50 °C
  solubility: > 200 mg/mL
[1]; (EtOH/water = 9/1)/MtBE 3/1 (v/v), 5 °C
  solubility: 59 mg/mL
[1]; (EtOH/water = 9/1)/MtBE 3/1 (v/v), 50 °C
  solubility: > 200 mg/mL
[1]; (EtOH/water = 9/1)/MtBE 3/3 (v/v), 5 °C
  solubility: 30 mg/mL
[1]; (EtOH/water = 9/1)/MtBE 3/3 (v/v), 50 °C
  solubility: 101 mg/mL
[1]; (EtOH/water = 9/1)/MtBE 3/6 (v/v), 5 °C
  solubility: 6 mg/mL
[1]; (EtOH/water = 9/1)/MtBE 3/6 (v/v), 50 °C
  solubility: 24 mg/mL
[1]; (EtOH/water = 9/1)/MtBE 3/9 (v/v), 5 °C
  solubility: 6 mg/mL
[1]; (EtOH/water = 9/1)/MtBE 3/9 (v/v), 50 °C
  solubility: 17 mg/mL
[2]
  Post-DVS XRPD form: no change in form
[2]; listed as CHP pattern 2
  Post-DVS XRPD form: no change in form
[2]; below 10% RH, 25 °C
  DVS water loss in equivalents: 0.5 equiv. water
  DVS weight loss: 3.5 wt. %
[3]; 40 °C, from 10 to 0% RH
  VT-DVS water loss in equivalents: 0.8 equiv water
  VT-DVS weight loss: approx. 5.8 wt %
[3]; 40 °C, from 10 to 0% RH, listed as CHP Hydrate, Pattern 2
  VT-DVS weight loss: 5.8 wt %
[3]; 40 °C, from 10 to 0% RH, listed as CHP pattern 2
  VT-DVS weight loss: approximately 5.8 wt %
[3]; 50 °C, from 20 to 0% RH
  VT-DVS water loss in equivalents: 0.8 equiv water
  VT-DVS weight loss: approximately 6.1 wt %
[3]; 50 °C, from 20 to 0% RH, listed as CHP Hydrate, Pattern 2
  VT-DVS weight loss: 6.1 wt %
[3]; 50 °C, from 20 to 0% RH, listed as CHP pattern 2
  VT-DVS weight loss: approx. 6.1 wt %
[3]; 60 °C, from 20 to 0% RH
  VT-DVS water loss in equivalents: 1.0 equiv water
  VT-DVS weight loss: approximately 7 wt %
[3]; 60 °C, from 20 to 0% RH, listed as CHP Hydrate, Pattern 2
  VT-DVS weight loss: 7 wt %
[3]; 60 °C, from 20 to 0% RH, listed as CHP pattern 2
  VT-DVS weight loss: approx. 7 wt %
[3]; VT-DVS at 40 °C
  RH below which dehydration starts: below 10 % RH
[3]; VT-DVS at 50 °C
  RH below which dehydration starts: below 20 % RH
[3]; VT-DVS at 60 °C
  RH below which dehydration starts: below 20 % RH
[3]
  Post-VT-DVS XRPD form: mixture of Patterns 1 and 2
[3]; listed as CHP pattern 2
  Post-VT-DVS XRPD form: mixture of pattern 1 and pattern 2; also recorded: mixture of pattern 1 and 2
[4]; 0M
  Growth of total Impurities: 0%
[4]; 1M
  Growth of total Impurities: 0%
[4]; 3M, listed as CHP hydrate (pattern 2)
  Growth of total Impurities: 0.00%
[4]; 6M, listed as CHP hydrate (pattern 2)
  Growth of total Impurities: 0.05%
[4]; accelerated conditions for 6 months
  Quality changes during stability study: no significant quality changes
[5]; 40 ± 2° C./75 ± 5% RH, 1M
  Appearance: Off-white
  Assay by HPLC: 103.2%
  Chiral, HPLC: chiral impurity (D, D) optical isomer: (D, D):N, D
  Chiral, HPLC: chiral impurity (D, L) optical isomer: (D, L):N, D
  Chiral, HPLC: chiral impurity (L, D) optical isomer: (L, D):N, D
  Chiral, HPLC: chiral purity: 100.0%
  Impurities, HPLC: H-His-OH: 0.08%
  Impurities, HPLC: each other individual impurity: individual < 0.05%
  Water content (KF): 7.2%
[5]; 40 ± 2° C./75 ± 5% RH, 3M
  Appearance: Off-white
  Assay by HPLC: 103.3%
  Chiral, HPLC: chiral impurity (D, D) optical isomer: (D, D):N, D
  Chiral, HPLC: chiral impurity (D, L) optical isomer: (D, L):N, D
  Chiral, HPLC: chiral impurity (L, D) optical isomer: (L, D):N, D
  Chiral, HPLC: chiral purity: 100.0%
  Impurities, HPLC: H-His-OH: 0.07%
  Impurities, HPLC: each other individual impurity: individual < 0.05%
  Water content (KF): 7.2%
[5]; 40 ± 2° C./75 ± 5% RH, 6M
  Appearance: Off-white
  Assay by HPLC: 102.4%
  Chiral, HPLC: chiral impurity (D, D) optical isomer: (D, D):N, D
  Chiral, HPLC: chiral impurity (D, L) optical isomer: (D, L):N, D
  Chiral, HPLC: chiral impurity (L, D) optical isomer: (L, D):0.5%
  Chiral, HPLC: chiral purity: 99.9%
  Impurities, HPLC: C16081735-D-isomer: isomer: 0.05%
  Impurities, HPLC: H-His-OH: 0.06%
  Water content (KF): 7.2%
  XRPD: Conform to reference
[5]; Initial (time zero)
  Appearance: Off-white
  Assay by HPLC: 103.4%
  Chiral, HPLC: chiral impurity (D, D) optical isomer: (D, D):N, D
  Chiral, HPLC: chiral impurity (D, L) optical isomer: (D, L):N, D
  Chiral, HPLC: chiral impurity (L, D) optical isomer: (L, D):N, D
  Chiral, HPLC: chiral purity: 100.0%
  Impurities, HPLC: H-His-OH: 0.07%
  Impurities, HPLC: each other individual impurity: individual < 0.03%
  Water content (KF): 7.4%
  XRPD: Conform to reference
